# Reference: ChEMBL document CHEMBL1144269, “Carbonic anhydrase inhibitors. Inhibition of isozymes I, II, IV, V, and IX with anions isosteric and isoelectronic with sulfate, nitrate, and carbonate” (Bioorg Med Chem Lett, 2005)
# Experiments:
# [1] = target: Carbonic anhydrase 5A, mitochondrial (Homo sapiens, UniProt P35218)
# Carbonic anhydrase 9 = Carbonic anhydrase 9 (Homo sapiens, UniProt Q16790)
# Carbonic anhydrase 2 = Carbonic anhydrase 2 (Homo sapiens, UniProt P00918)
# Carbonic anhydrase 4 = Carbonic anhydrase 4 (Homo sapiens, UniProt P22748)
# Chain of Carbonic anhydrase 4 (P22748 whole entry): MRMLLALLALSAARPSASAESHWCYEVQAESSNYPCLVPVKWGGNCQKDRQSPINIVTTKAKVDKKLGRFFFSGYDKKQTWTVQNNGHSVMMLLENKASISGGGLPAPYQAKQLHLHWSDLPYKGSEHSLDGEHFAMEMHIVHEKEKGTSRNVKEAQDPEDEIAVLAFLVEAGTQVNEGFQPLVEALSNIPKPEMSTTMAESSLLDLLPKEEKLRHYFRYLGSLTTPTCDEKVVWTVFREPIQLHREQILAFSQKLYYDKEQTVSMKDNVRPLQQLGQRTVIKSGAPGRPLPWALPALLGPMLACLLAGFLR
# Carbonic anhydrase 1 = Carbonic anhydrase 1 (Homo sapiens, UniProt P00915)
# Chain of Carbonic anhydrase 1 (P00915 whole entry): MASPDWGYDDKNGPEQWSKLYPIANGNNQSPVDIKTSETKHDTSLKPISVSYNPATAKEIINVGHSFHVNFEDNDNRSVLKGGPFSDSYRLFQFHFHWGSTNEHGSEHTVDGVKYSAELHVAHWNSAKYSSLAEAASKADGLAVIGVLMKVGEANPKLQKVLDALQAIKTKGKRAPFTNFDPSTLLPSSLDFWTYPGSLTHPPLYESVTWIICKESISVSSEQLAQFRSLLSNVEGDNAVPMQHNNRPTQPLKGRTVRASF
# Chain of Carbonic anhydrase 5A, mitochondrial (P35218 whole entry): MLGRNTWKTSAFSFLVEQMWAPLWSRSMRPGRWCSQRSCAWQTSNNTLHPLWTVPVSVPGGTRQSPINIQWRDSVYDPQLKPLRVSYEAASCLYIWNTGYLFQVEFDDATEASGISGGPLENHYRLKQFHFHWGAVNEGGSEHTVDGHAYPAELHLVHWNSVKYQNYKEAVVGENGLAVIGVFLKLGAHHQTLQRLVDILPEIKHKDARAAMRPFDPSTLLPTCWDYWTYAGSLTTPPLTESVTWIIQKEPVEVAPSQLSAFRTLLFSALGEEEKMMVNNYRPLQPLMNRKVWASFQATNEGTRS
Structure (SMILES),Ki [1],Ki (Carbonic anhydrase 9),Ki (Carbonic anhydrase 2),Ki (Carbonic anhydrase 4),Ki (Carbonic anhydrase 1)
[O-][I+3]([O-])([O-])O [PERIODATE],15.7 mM,30.3 mM,75.8 mM,226 mM,14.6 mM
NS(=O)(=O)O [SULFAMATE],0.12 mM,0.0092 mM,–,–,–
[O-][Cl+3]([O-])([O-])O [PERCHLORATE],13.6 mM,11.6 mM,–,767 mM,0.69 mM
O=[N+]([O-])O [NITRIC ACID],16 mM,–,–,–,–
O=C(O)O [BICARBONATE],95 mM,0.0086 mM,–,–,–
O=S(=O)(O)O [SULFURIC ACID],680 mM,154 mM,–,–,–
[O-][Br+2]([O-])O [BROMATE],11.3 mM,274 mM,12 mM,128 mM,4.79 mM
[O-][Cl+2]([O-])O [CHLORATE],7.12 mM,147 mM,0.85 mM,64.9 mM,0.54 mM
